These results are taken from US20250205344A1, “2,4-DIOXOTETRAHYDROPYRIMIDINYL DERATIVES AS DEGRONS IN PROTACS” (GLAXOSMITHKLINE INTELLECTUAL PROPERTY DEVELOPMENT LIMITED, priority 2022, published 2025).

Structures can show the parent of a compound that is named as a salt.

The target in this assay is T1, Androgen Receptor (Homo sapiens, UniProt P10275, T878A).
T1 construct: the AR gene was modified, using CRISPR/Cas9 editing, so the expressed AR protein included an 11 amino acid HiBiT tag; endogenous in cells; host or cells: clonal LnCaP-derived line, AR gene edited by CRISPR/Cas9
T1 sequence (P10275 whole entry T878A): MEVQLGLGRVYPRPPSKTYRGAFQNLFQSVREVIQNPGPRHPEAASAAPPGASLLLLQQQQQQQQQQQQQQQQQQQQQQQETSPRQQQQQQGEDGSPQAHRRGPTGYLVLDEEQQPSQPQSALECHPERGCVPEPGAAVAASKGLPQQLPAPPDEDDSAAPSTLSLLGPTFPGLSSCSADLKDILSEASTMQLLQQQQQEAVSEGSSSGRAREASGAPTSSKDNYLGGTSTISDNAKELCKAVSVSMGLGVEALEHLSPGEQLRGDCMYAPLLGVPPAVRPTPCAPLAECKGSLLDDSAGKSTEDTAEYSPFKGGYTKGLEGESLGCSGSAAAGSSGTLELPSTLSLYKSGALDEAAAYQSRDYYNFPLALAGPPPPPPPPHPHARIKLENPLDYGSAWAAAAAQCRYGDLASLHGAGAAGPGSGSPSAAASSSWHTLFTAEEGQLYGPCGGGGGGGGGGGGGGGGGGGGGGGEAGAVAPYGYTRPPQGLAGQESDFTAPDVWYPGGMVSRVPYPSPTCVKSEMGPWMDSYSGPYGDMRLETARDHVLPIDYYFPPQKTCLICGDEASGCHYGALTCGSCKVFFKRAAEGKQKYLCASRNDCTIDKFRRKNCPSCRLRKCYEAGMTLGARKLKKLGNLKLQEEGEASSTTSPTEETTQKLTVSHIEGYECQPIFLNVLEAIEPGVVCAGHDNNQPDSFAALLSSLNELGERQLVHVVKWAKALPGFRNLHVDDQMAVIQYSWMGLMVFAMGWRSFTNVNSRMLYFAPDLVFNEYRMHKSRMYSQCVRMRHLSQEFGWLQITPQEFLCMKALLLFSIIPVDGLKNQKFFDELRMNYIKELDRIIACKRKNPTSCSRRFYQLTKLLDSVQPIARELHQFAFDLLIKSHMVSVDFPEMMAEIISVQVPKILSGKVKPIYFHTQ
T1 sequence (Q96SW2 whole entry partner): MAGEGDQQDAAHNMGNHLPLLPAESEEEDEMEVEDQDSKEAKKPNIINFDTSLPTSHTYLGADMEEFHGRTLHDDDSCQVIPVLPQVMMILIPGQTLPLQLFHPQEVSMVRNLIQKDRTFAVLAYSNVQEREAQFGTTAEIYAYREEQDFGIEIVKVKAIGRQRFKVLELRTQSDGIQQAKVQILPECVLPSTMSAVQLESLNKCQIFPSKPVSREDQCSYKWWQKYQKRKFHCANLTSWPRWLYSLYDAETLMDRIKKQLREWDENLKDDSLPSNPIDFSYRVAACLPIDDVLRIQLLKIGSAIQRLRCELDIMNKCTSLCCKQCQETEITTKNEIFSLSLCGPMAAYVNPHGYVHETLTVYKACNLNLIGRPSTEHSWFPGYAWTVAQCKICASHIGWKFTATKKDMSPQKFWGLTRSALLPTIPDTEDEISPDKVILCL
T1 sequence (Q16531 whole entry partner): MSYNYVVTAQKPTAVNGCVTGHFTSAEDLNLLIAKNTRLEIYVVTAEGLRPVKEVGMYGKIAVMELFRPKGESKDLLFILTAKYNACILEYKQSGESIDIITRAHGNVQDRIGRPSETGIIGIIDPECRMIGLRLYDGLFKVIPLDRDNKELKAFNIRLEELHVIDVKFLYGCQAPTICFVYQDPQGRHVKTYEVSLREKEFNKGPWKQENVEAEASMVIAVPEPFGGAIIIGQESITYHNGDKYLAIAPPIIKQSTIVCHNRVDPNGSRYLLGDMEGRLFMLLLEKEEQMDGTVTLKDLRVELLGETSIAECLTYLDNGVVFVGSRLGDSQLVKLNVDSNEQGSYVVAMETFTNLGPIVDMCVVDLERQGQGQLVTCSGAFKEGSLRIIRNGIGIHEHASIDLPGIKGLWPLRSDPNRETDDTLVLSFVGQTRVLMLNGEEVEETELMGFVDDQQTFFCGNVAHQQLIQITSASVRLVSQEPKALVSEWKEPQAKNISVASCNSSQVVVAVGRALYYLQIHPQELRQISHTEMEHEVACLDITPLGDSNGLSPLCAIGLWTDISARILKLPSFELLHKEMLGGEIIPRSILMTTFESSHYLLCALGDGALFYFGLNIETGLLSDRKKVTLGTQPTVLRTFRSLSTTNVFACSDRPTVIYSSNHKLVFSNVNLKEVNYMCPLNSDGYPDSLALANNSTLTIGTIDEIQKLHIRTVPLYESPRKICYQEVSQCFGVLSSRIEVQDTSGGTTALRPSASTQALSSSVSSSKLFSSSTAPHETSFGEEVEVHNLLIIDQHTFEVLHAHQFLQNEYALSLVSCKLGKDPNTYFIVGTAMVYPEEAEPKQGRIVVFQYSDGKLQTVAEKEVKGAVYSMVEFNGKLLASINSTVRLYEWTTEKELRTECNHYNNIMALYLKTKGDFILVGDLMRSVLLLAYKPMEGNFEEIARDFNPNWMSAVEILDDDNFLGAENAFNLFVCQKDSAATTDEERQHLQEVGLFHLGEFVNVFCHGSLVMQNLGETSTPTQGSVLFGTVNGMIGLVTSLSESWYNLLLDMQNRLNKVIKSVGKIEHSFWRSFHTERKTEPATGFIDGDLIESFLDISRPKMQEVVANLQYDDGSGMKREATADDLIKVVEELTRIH
The experiment in a line: Androgen Receptor Degradation Assay (Nano-Glo HiBiT). In kind it is cell-based. The note with it: LNCaP, 18 h, HiBiT-tagged AR in human LnCaP cells, read-out: mean asymptote max. The method in brief:
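LnCaP cells with CRISPR-knocked-in N-terminal HiBiT-tagged AR (10,000/well) treated 18 h at 37 °C with PROTACs over 11 threefold concentrations; lytic HiBiT luminescence normalised to DMSO (0%) and cell-free (100%) controls. Relative DC50 = 4-parameter fit inflection; absolute DC50 = 50% degradation interpolation; Dmax = maximum observed degradation.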
On the technique in general: HiBiT is a short tag that completes a luciferase, so light tracks the accessible tagged protein.
For the molecule `CC1(C)C(=O)N(c2ccc(C#N)c(C(F)(F)F)c2)C(=S)N1c1ccc(N2CCC(CCN3CCC(n4ccc5c(N6CCC(=O)NC6=O)cncc54)CC3)CC2)cc1` [EAR100, 4-(3-(4-(4-(2-(4-(4-(2,4-Dioxotetrahydropyrimidin-1(2H)-yl)-1H-pyrrolo[2,3-c]pyridin-1-yl)piperidin-1-yl)ethyl)piperidin-1-yl)phenyl)-4,4-dimethyl-5-oxo-2-thioxoimidazolidin-1-yl)-2-(trifluoromethyl)benzonitrile formate], the Dmax was no less than 50%. For the molecule `CC1(C)C(=O)N(c2ccc(C#N)c(C(F)(F)F)c2)C(=S)N1c1ccc(N2CCC(CN3CCC(n4ccc5c(N6CCC(=O)NC6=O)cccc54)CC3)CC2)cc1` [EAR99, 4-(3-(4-(4-((4-(4-(2,4-Dioxotetrahydropyrimidin-1(2H)-yl)-1H-indol-1-yl)piperidin-1-yl)methyl)piperidin-1-yl)phenyl)-4,4-dimethyl-5-oxo-2-thioxoimidazolidin-1-yl)-2-(trifluoromethyl)benzonitrile formate], the Dmax was no less than 50%. As for `N#Cc1ccc(O[C@H]2CC[C@H](NC(=O)c3ccc(OCCCN4CCC(n5ccc6c(N7CCC(=O)NC7=O)cccc65)CC4)cn3)CC2)cc1Cl` [EAR62, N-((1r,4r)-4-(3-Chloro-4-cyanophenoxy)cyclohexyl)-5-(3-(4-(4-(2,4-dioxotetrahydropyrimidin-1(2H)-yl)-1H-indol-1-yl)piperidin-1-yl)propoxy)picolinamide], the Dmax is no less than 50%. For `CC1(C)[C@H](NC(=O)c2ccc(N3CCC(CN4CCC(n5ncc6c(N7CCC(=O)NC7=O)ccnc65)CC4)CC3)cn2)C(C)(C)[C@H]1Oc1ccc(C#N)c2ncccc12` [EAR260, N-((1r,3r)-3-((8-Cyanoquinolin-5-yl)oxy)-2,2,4,4-tetramethylcyclobutyl)-5-(4-((4-(4-(2,4-dioxotetrahydropyrimidin-1(2H)-yl)-1H-pyrazolo[3,4-b]pyridin-1-yl)piperidin-1-yl)methyl)piperidin-1-yl)picolinamide hydrochloride], the Dmax is no less than 50%. With `CC1(C)C(=O)N(c2ccc(C#N)c(C(F)(F)F)c2)C(=S)N1c1ccc(OCCCN2CCC(n3ccc4c(N5CCC(=O)NC5=O)cncc43)CC2)cc1` [EAR104, 4-(3-(4-(3-(4-(4-(2,4-Dioxotetrahydropyrimidin-1(2H)-yl)-1H-pyrrolo[2,3-c]pyridin-1-yl)piperidin-1-yl)propoxy)phenyl)-4,4-dimethyl-5-oxo-2-thioxoimidazolidin-1-yl)-2-(trifluoromethyl)benzonitrile], the Dmax was no less than 50%.

Take `N#Cc1ccc(O[C@H]2CC[C@H](NC(=O)c3ccc(N4CCC(CN5CCC(n6ncc7c(N8CCC(=O)NC8=O)cncc76)CC5)CC4)nn3)CC2)cc1Cl` [EAR53, N-((1r,4r)-4-(3-Chloro-4-cyanophenoxy)cyclohexyl)-6-(4-((4-(4-(2,4-dioxotetrahydropyrimidin-1(2H)-yl)-1H-pyrazolo[3,4-c]pyridin-1-yl)piperidin-1-yl)methyl)piperidin-1-yl)pyridazine-3-carboxamide hydrochloride]: the Dmax is no less than 50%. In the case of `CC(C)n1ccc2c(N3CCC(=O)NC3=O)cc(C(=O)N3CCN(c4ccc(C(=O)N[C@H]5CC[C@H](Oc6ccc(C#N)c(Cl)c6)CC5)nn4)CC3)cc21` [EAR77, N-((1r,4r)-4-(3-Chloro-4-cyanophenoxy)cyclohexyl)-6-(4-(4-(2,4-dioxotetrahydropyrimidin-1(2H)-yl)-1-isopropyl-1H-indole-6-carbonyl)piperazin-1-yl)pyridazine-3-carboxamide] it was no less than 50%. As to `N#Cc1ccc(O[C@H]2CC[C@H](NC(=O)c3cnc(N4CCC(CN5CCC(n6ccc7c(N8CCC(=O)NC8=O)nccc76)CC5)CC4)nc3)CC2)cc1Cl` [EAR211, N-((1r,4r)-4-(3-chloro-4-cyanophenoxy)cyclohexyl)-2-(4-((4-(4-(2,4-dioxotetrahydropyrimidin-1(2H)-yl)-1H-pyrrolo[3,2-c]pyridin-1-yl)piperidin-1-yl)methyl)piperidin-1-yl)pyrimidine-5-carboxamide hydrochloride], the Dmax is no less than 50%. In the case of `N#Cc1ccc(O[C@H]2CC[C@H](NC(=O)c3ccc(N4CCC(CN5CCC(n6ccc7c(N8CCC(=O)NC8=O)ccnc76)CC5)CC4)nn3)CC2)cc1Cl` [EAR149, N-((1r,4r)-4-(3-Chloro-4-cyanophenoxy)cyclohexyl)-6-(4-((4-(4-(2,4-dioxotetrahydropyrimidin-1(2H)-yl)-1H-pyrrolo[2,3-b]pyridin-1-yl)piperidin-1-yl)methyl)piperidin-1-yl)pyridazine-3-carboxamide], the Dmax is no less than 50%. Turning to `N#Cc1ccc(O[C@H]2CC[C@H](NC(=O)c3ccc(N4CCC[C@@H](CN5CCC(n6ncc7c(N8CCC(=O)NC8=O)cccc76)CC5)C4)nn3)CC2)cc1Cl` [EAR153, N-((1r,4S)-4-(3-Chloro-4-cyanophenoxy)cyclohexyl)-6-((S)-3-((4-(4-(2,4-dioxotetrahydropyrimidin-1(2H)-yl)-1H-indazol-1-yl)piperidin-1-yl)methyl)piperidin-1-yl)pyridazine-3-carboxamide, formic acid salt], the Dmax was no less than 50%. As to `N#Cc1ccc(O[C@H]2CC[C@H](NC(=O)c3ccc(N4CCC(N5CCC(n6ccc7c(N8CCC(=O)NC8=O)cccc76)CC5)CC4)nn3)CC2)cc1Cl` [AR7, N-((1r,4r)-4-(3-Chloro-4-cyanophenoxy)cyclohexyl)-6-(4-(4-(2,4-dioxotetrahydropyrimidin-1(2H)-yl)-1H-indol-1-yl)-[1,4′-bipiperidin]-1′-yl)pyridazine-3-carboxamide], the Dmax is no less than 50%.

On to `N#Cc1ccc(O[C@H]2CC[C@H](NC(=O)c3ccc(N4CCC(CN5CCC(n6ccc7c(N8CCC(=O)NC8=O)cccc76)CC5)CC4)cc3)CC2)cc1Cl` [EAR169, N-((1r,4r)-4-(3-chloro-4-cyanophenoxy)cyclohexyl)-4-(4-((4-(4-(2,4-dioxotetrahydropyrimidin-1(2H)-yl)-1H-indol-1-yl)piperidin-1-yl)methyl)piperidin-1-yl)benzamide], for which the Dmax was no less than 50%. Take `CC(C)n1ccc2c(N3CCC(=O)NC3=O)cc(C(=O)N3CCC4(CCCN(CCCCCc5ccc(C(=O)N[C@H]6CC[C@H](Oc7ccc(C#N)c(Cl)c7)CC6)cc5)C4)CC3)cc21` [EAR83, N-((1r,4r)-4-(3-Chloro-4-cyanophenoxy)cyclohexyl)-4-(5-(9-(4-(2,4-dioxotetrahydropyrimidin-1(2H)-yl)-1-isopropyl-1H-indole-6-carbonyl)-2,9-diazaspiro[5.5]undecan-2-yl)pentyl)benzamide]: the Dmax was no less than 50%. `N#Cc1ccc(O[C@H]2CC[C@H](NC(=O)c3ccc(N4CCO[C@H](CN5CCC(n6ccc7c(N8CCC(=O)NC8=O)cccc76)CC5)C4)nn3)CC2)cc1Cl` [EAR123, N-((1r,4R)-4-(3-Chloro-4-cyanophenoxy)cyclohexyl)-6-((R)-2-((4-(4-(2,4-dioxotetrahydropyrimidin-1(2H)-yl)-1H-indol-1-yl)piperidin-1-yl)methyl)morpholino)pyridazine-3-carboxamide]: the Dmax is no less than 50%. With `C[C@@H]1CN(c2ccc(C#N)c(Cl)c2)[C@@H](C)CN1C(=O)c1ccc(OCCCCCN2CCC(n3ncc4c(N5CCC(=O)NC5=O)cncc43)CC2)nc1` [EAR164, 2-Chloro-4-((2S,5R)-4-(6-((5-(4-(4-(2,4-dioxotetrahydropyrimidin-1(2H)-yl)-1H-pyrazolo[3,4-c]pyridin-1-yl)piperidin-1-yl)pentyl)oxy)nicotinoyl)-2,5-dimethylpiperazin-1-yl)benzonitrile], the Dmax is no less than 50%. In the case of `N#Cc1ccc(O[C@H]2CC[C@H](NC(=O)c3ccc(N4CCC(CN5CCC(n6ccc7c(N8CCC(=O)NC8=O)cccc76)CC5)CC4)cc3F)CC2)cc1Cl` [EAR187, N-((1r,4r)-4-(3-Chloro-4-cyanophenoxy)cyclohexyl)-4-(4-((4-(4-(2,4-dioxotetrahydropyrimidin-1(2H)-yl)-1H-indol-1-yl)piperidin-1-yl)methyl)piperidin-1-yl)-2-fluorobenzamide], the Dmax is no less than 50%. `N#Cc1ccc(O[C@H]2CC[C@H](NC(=O)c3ccc(N4CCCC(CN5CCC(n6ncc7c(N8CCC(=O)NC8=O)cccc76)CC5)C4)nn3)CC2)cc1Cl` (some centres unmarked) [EAR36, N-((1r,4r)-4-(3-Chloro-4-cyanophenoxy)cyclohexyl)-6-(3-((4-(4-(2,4-dioxotetrahydropyrimidin-1(2H)-yl)-1H-indazol-1-yl)piperidin-1-yl)methyl)piperidin-1-yl)pyridazine-3-carboxamide]: the Dmax is no less than 50%. Turning to `C[C@@H]1CN(C(=O)Nc2ccc(N3CCC(CCN4CCC(n5ncc6c(N7CCC(=O)NC7=O)cccc65)CC4)CC3)nc2)[C@@H](C)CN1c1ccc(C#N)c(Cl)c1` [EAR132, (2S,5R)-4-(3-Chloro-4-cyanophenyl)-N-(6-(4-(2-(4-(4-(2,4-dioxotetrahydropyrimidin-1(2H)-yl)-1H-indazol-1-yl)piperidin-1-yl)ethyl)piperidin-1-yl)pyridin-3-yl)-2,5-dimethylpiperazine-1-carboxamide, formic acid salt], the Dmax is no less than 50%. In the case of `C[C@@H]1CN(c2ccc(C#N)c(Cl)c2)[C@@H](C)CN1C(=O)Nc1ccc(OCCCCN2CCC(n3ccc4c(N5CCC(=O)NC5=O)cccc43)CC2)nc1` [EAR109, (2R,5S)-4-(3-Chloro-4-cyanophenyl)-N-(6-(4-(4-(4-(2,4-dioxotetrahydropyrimidin-1(2H)-yl)-1H-indol-1-yl)piperidin-1-yl)butoxy)pyridin-3-yl)-2,5-dimethylpiperazine-1-carboxamide] it was no less than 50%; in that of `N#Cc1ccc(O[C@H]2CC[C@H](NC(=O)c3ccc(N4CCC5(CC4)CC(N4CCC(n6ccc7c(N8CCC(=O)NC8=O)cccc76)CC4)C5)nn3)CC2)cc1Cl` [EAR193, N-((1r,4r)-4-(3-Chloro-4-cyanophenoxy)cyclohexyl)-6-(2-(4-(4-(2,4-dioxotetrahydropyrimidin-1(2H)-yl)-1H-indol-1-yl)piperidin-1-yl)-7-azaspiro[3.5]nonan-7-yl)pyridazine-3-carboxamide], no less than 50%.
